The record followed here is patent publication US5556744A, “Methods and compositions for diagnosing and treating certain HIV infected patients” (The Trustees of the University of Pennsylvania, priority 1994, dated 1996).

The subject of assay [1] is maternal HIV+ sera (antibodies). The experiment in a line: RIA / ELISA binding of maternal HIV+ sera to gp120 and gp41 peptides (Example 3). More on the design: species or system human. Put shortly: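 Peptides were coated at 10 μg/ml in carbonate buffer pH 9.6 and blocked with 1% BSA. Sera at 1:50 and 1:500 were incubated overnight at 4°C and detected with ¹²⁵I anti-human IgG (RIA) or HRP/TMB at OD450 (ELISA). Specific binding was taken as peptide minus no-peptide wells, scored as a ratio to normal human serum.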
On the technique in general: ELISA stands for enzyme-linked immunosorbent assay.

In assay [2] the test system is maternal sera (antibodies). Nature of the assay: ELISA peptide-binding of maternal sera (Example 6). More on the design: species or system human. To be noted: for Number of Non-Transmitters which bound to peptide / Percent of Non-Transmitters which bound to peptide: N = 12; for Number of Transmitters which bound to peptide / Percent of Transmitters which bound to peptide: N = 4. Put shortly: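 Third-trimester maternal sera, from HIV-1 transmitting and non-transmitting mothers, were tested by ELISA against ~16-residue peptides spanning HIV-1 external and transmembrane glycoproteins. Each serum was run with at least 40 peptides, and values are the percentage of sera binding each peptide.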

The mark [3] stands for this setting: Serum No. 1, Non-Transmission Group.
Setting [4] is: Serum No. 2, Non-Transmission Group.
The mark [5] stands for this setting: Serum No. 3, Non-Transmission Group.
Where [6] appears, read: Serum No. 4, Transmission Group.
Setting [7] is: Serum No. 5, Transmission Group.
[8] abbreviates: Serum No. 6, Non-Transmission Group.
The mark [9] stands for this setting: Serum No. 7, Non-Transmission Group.
[10] abbreviates: Serum No. 8, Non-Transmission Group.
Setting [11] is: Serum No. 9, Non-Transmission Group.
Where [12] appears, read: Serum No. 10, Transmission Group.
[13] abbreviates: Serum No. 11, Non-Transmission Group.
Setting [14] is: Serum No. 12, Non-Transmission Group.
[15] abbreviates: Serum No. 13, Transmission Group.
[16] abbreviates: Serum No. 14, Transmission Group.
Setting [17] is: Serum No. 15, Transmission Group.
Where [18] appears, read: Serum No. 16, Non-Transmission Group.
Where [19] appears, read: Serum No. 17, Non-Transmission Group.
Where [20] appears, read: Serum No. 18, Non-Transmission Group.
Setting [21] is: Serum No. 19, Transmission Group.
The mark [22] stands for this setting: Serum No. 20, Non-Transmission Group.

For the sequence IGALFLGFGAAGST [Peptide 117], the “Binding of maternal HIV+ serum to peptide (sera/NHS ratio)” value (shortened to “Binding … (sera/NHS ratio)”) in assay [1] (setting [3]) was “- (specific OD450 or cpm of sera sample binding to peptide divided by the specific OD450 or cpm of NHS sample binding to peptide, which value is less than 2)”; in assay [1] (setting [4]) it was “- (specific OD450 or cpm of sera sample binding to peptide divided by the specific OD450 or cpm of NHS sample binding to peptide, which value is less than 2)”; in assay [1] (setting [5]), “- (specific OD450 or cpm of sera sample binding to peptide divided by the specific OD450 or cpm of NHS sample binding to peptide, which value is less than 2)”; in assay [1] (setting [6]), “- (specific OD450 or cpm of sera sample binding to peptide divided by the specific OD450 or cpm of NHS sample binding to peptide, which value is less than 2)”; in assay [1] (setting [7]), “- (specific OD450 or cpm of sera sample binding to peptide divided by the specific OD450 or cpm of NHS sample binding to peptide, which value is less than 2)”; in assay [1] (setting [8]) it was “- (specific OD450 or cpm of sera sample binding to peptide divided by the specific OD450 or cpm of NHS sample binding to peptide, which value is less than 2)”. The “Binding … (sera/NHS ratio)” value is “- (specific OD450 or cpm of sera sample binding to peptide divided by the specific OD450 or cpm of NHS sample binding to peptide, which value is less than 2)” in assay [1] (setting [9]); “- (specific OD450 or cpm of sera sample binding to peptide divided by the specific OD450 or cpm of NHS sample binding to peptide, which value is less than 2)” in assay [1] (setting [10]); “- (specific OD450 or cpm of sera sample binding to peptide divided by the specific OD450 or cpm of NHS sample binding to peptide, which value is less than 2)” in assay [1] (setting [11]); “- (specific OD450 or cpm of sera sample binding to peptide divided by the specific OD450 or cpm of NHS sample binding to peptide, which value is less than 2)” in assay [1] (setting [12]); “- (specific OD450 or cpm of sera sample binding to peptide divided by the specific OD450 or cpm of NHS sample binding to peptide, which value is less than 2)” in assay [1] (setting [13]); “- (specific OD450 or cpm of sera sample binding to peptide divided by the specific OD450 or cpm of NHS sample binding to peptide, which value is less than 2)” in assay [1] (setting [14]). Also, the “Binding … (sera/NHS ratio)” value is “- (specific OD450 or cpm of sera sample binding to peptide divided by the specific OD450 or cpm of NHS sample binding to peptide, which value is less than 2)” in assay [1] (setting [15]); “- (specific OD450 or cpm of sera sample binding to peptide divided by the specific OD450 or cpm of NHS sample binding to peptide, which value is less than 2)” in assay [1] (setting [16]); “- (specific OD450 or cpm of sera sample binding to peptide divided by the specific OD450 or cpm of NHS sample binding to peptide, which value is less than 2)” in assay [1] (setting [17]); “- (specific OD450 or cpm of sera sample binding to peptide divided by the specific OD450 or cpm of NHS sample binding to peptide, which value is less than 2)” in assay [1] (setting [18]); “- (specific OD450 or cpm of sera sample binding to peptide divided by the specific OD450 or cpm of NHS sample binding to peptide, which value is less than 2)” in assay [1] (setting [19]); “- (specific OD450 or cpm of sera sample binding to peptide divided by the specific OD450 or cpm of NHS sample binding to peptide, which value is less than 2)” in assay [1] (setting [20]). Also, the “Binding … (sera/NHS ratio)” value in assay [1] (setting [21]) is listed as “- (specific OD450 or cpm of sera sample binding to peptide divided by the specific OD450 or cpm of NHS sample binding to peptide, which value is less than 2)”; in assay [1] (setting [22]), “- (specific OD450 or cpm of sera sample binding to peptide divided by the specific OD450 or cpm of NHS sample binding to peptide, which value is less than 2)”. The “Number of Non-Transmitters which bound to peptide” value in assay [2] is on record as 2. Besides, in assay [2], the “Percent of Non-Transmitters which bound to peptide” value is 16.7%. In addition, the “Number of Transmitters which bound to peptide” value in assay [2] stood at 0. Further, the “Percent of Transmitters which bound to peptide” value in assay [2] stood at 0%.
For NYTSLIHSLIEESQNQ [Peptide 41], the “Binding … (sera/NHS ratio)” value in assay [1] (setting [3]) is recorded as “- (specific OD450 or cpm of sera sample binding to peptide divided by the specific OD450 or cpm of NHS sample binding to peptide, which value is less than 2)”; in assay [1] (setting [4]) it was “- (specific OD450 or cpm of sera sample binding to peptide divided by the specific OD450 or cpm of NHS sample binding to peptide, which value is less than 2)”; in assay [1] (setting [5]) it was “- (specific OD450 or cpm of sera sample binding to peptide divided by the specific OD450 or cpm of NHS sample binding to peptide, which value is less than 2)”; in assay [1] (setting [6]), “- (specific OD450 or cpm of sera sample binding to peptide divided by the specific OD450 or cpm of NHS sample binding to peptide, which value is less than 2)”; in assay [1] (setting [7]), “- (specific OD450 or cpm of sera sample binding to peptide divided by the specific OD450 or cpm of NHS sample binding to peptide, which value is less than 2)”; in assay [1] (setting [8]), “- (specific OD450 or cpm of sera sample binding to peptide divided by the specific OD450 or cpm of NHS sample binding to peptide, which value is less than 2)”. Also, the “Binding … (sera/NHS ratio)” value in assay [1] (setting [9]) is reported as “- (specific OD450 or cpm of sera sample binding to peptide divided by the specific OD450 or cpm of NHS sample binding to peptide, which value is less than 2)”; in assay [1] (setting [10]), “- (specific OD450 or cpm of sera sample binding to peptide divided by the specific OD450 or cpm of NHS sample binding to peptide, which value is less than 2)”; in assay [1] (setting [11]), “- (specific OD450 or cpm of sera sample binding to peptide divided by the specific OD450 or cpm of NHS sample binding to peptide, which value is less than 2)”; in assay [1] (setting [12]), “- (specific OD450 or cpm of sera sample binding to peptide divided by the specific OD450 or cpm of NHS sample binding to peptide, which value is less than 2)”; in assay [1] (setting [13]), “- (specific OD450 or cpm of sera sample binding to peptide divided by the specific OD450 or cpm of NHS sample binding to peptide, which value is less than 2)”; in assay [1] (setting [14]), “- (specific OD450 or cpm of sera sample binding to peptide divided by the specific OD450 or cpm of NHS sample binding to peptide, which value is less than 2)”. For the same sequence, the “Binding … (sera/NHS ratio)” value is listed as “- (specific OD450 or cpm of sera sample binding to peptide divided by the specific OD450 or cpm of NHS sample binding to peptide, which value is less than 2)” in assay [1] (setting [15]); “- (specific OD450 or cpm of sera sample binding to peptide divided by the specific OD450 or cpm of NHS sample binding to peptide, which value is less than 2)” in assay [1] (setting [16]); “- (specific OD450 or cpm of sera sample binding to peptide divided by the specific OD450 or cpm of NHS sample binding to peptide, which value is less than 2)” in assay [1] (setting [17]); “- (specific OD450 or cpm of sera sample binding to peptide divided by the specific OD450 or cpm of NHS sample binding to peptide, which value is less than 2)” in assay [1] (setting [18]); “- (specific OD450 or cpm of sera sample binding to peptide divided by the specific OD450 or cpm of NHS sample binding to peptide, which value is less than 2)” in assay [1] (setting [19]); “- (specific OD450 or cpm of sera sample binding to peptide divided by the specific OD450 or cpm of NHS sample binding to peptide, which value is less than 2)” in assay [1] (setting [20]). The “Binding … (sera/NHS ratio)” value is on record as “- (specific OD450 or cpm of sera sample binding to peptide divided by the specific OD450 or cpm of NHS sample binding to peptide, which value is less than 2)” in assay [1] (setting [21]) and “- (specific OD450 or cpm of sera sample binding to peptide divided by the specific OD450 or cpm of NHS sample binding to peptide, which value is less than 2)” in assay [1] (setting [22]). Moreover, the “Number of Non-Transmitters which bound to peptide” value in assay [2] was 0. Besides, the “Percent of Non-Transmitters which bound to peptide” value in assay [2] is reported as 0%. In addition, in assay [2], the “Number of Transmitters which bound to peptide” value is on record as 0. Moreover, the “Percent of Transmitters which bound to peptide” value in assay [2] stood at 0%.
